Legend:
tonsil naive T cells = test: Transwell chemotaxis of tonsil naive T cells towards S1P; assay type: cell-based, human; settings: for Effect of pharmacological inhibitor on tonsil naive T cell migration to S1P: tonsil naive T cells, 2 h pre-incubation with inhibitor
[1] = test system: peripheral T cells and NK cells; settings: cited from earlier work
tonsil TCM and TEM cells = test: Transwell migration of tonsil memory T cells (TCM, TEM) in presence of S1P; assay type: cell-based, human; settings: for Impact on memory T cell migration in the presence of S1P: tonsil memory T cells
[2] = test system: act-CD4+ and act-CD8+ T cells; test: Transwell migration of tonsil recently activated T cells (CD38+HLA-DR+) in presence of S1P; assay type: cell-based, human
From the text: Upon antigen-mediated activation, T cells are retained within secondary lymphoid organs, presumably to sustain their activation and differentiation through serial interactions with antigen presenting cells. Mechanistically, it was previously reported that mouse T cells lose their reactivity during this phase by down regulating S1PR1 expression (Matloubian et al., 2004). We addressed this point in human, exploiting the fact that tonsils contain act-T cells in a variable proportion, classically defined as CD38^+HLA-DR^+.

[3] = test system: tonsil CD4+ TRM cells (CD69 positive); test: Transwell migration of tonsil resident memory T cells (TRM) in presence of S1P; settings: irrespective of CD103 expression
Experimental: All material was used after obtaining informed consent and the research was conducted in accordance with the Helsinki Declaration. Human peripheral blood was obtained from healthy donors. Cells were ficollized and then washed several times in complete medium before resuspension in chemotaxis medium. Pediatric tonsils were obtained from patients undergoing tonsillectomy and were cut into pieces using a scalpel and then passed through a 70 μM cell strained to produce a cell suspension. Cells were then ficollized and washed before migration studies.
Tonsil lymphocytes or PBMC were suspended in RPMI1640 supplemented with 4 mg/ml fatty acid-free bovine albumin (Sigma, St-Louis, USA). […] Cell migration was analyzed in Transwell chambers (Costar, Cambridge, USA) with 5 μm pore-width polycarbonate filters. […] Transmigrated cells were stained for CD3 (UCHT1), CD4 (RPA-T4), CD8 (RPA-T8), CD45RO (UCHL1), CCR7 (G043H7), CD69 (FN50), CD103 (Ber-act8), CD38 (HIT32) and HLA-DR (LN3) and analyzed/counted by flow cytometry (MACSquant, Miltenyi biotec, Bergisch Gladbach, Germany). […] The percentage of input was calculated as the ratio between the number of cells migrating in a given condition and the number of cells used for the chemotaxis assay.

tonsil T cell subsets = test: Transwell migration of tonsil T cell subsets toward CXCL12 +/- S1P
Experimental: Results are shown as migration index.
All material was used after obtaining informed consent and the research was conducted in accordance with the Helsinki Declaration. […] Pediatric tonsils were obtained from patients undergoing tonsillectomy and were cut into pieces using a scalpel and then passed through a 70 μM cell strained to produce a cell suspension. Cells were then ficollized and washed before migration studies.
Tonsil lymphocytes or PBMC were suspended in RPMI1640 supplemented with 4 mg/ml fatty acid-free bovine albumin (Sigma, St-Louis, USA). […] Cell migration was analyzed in Transwell chambers (Costar, Cambridge, USA) with 5 μm pore-width polycarbonate filters. […] PBMC or tonsil cells were added to the top chambers of the transwell systems in the presence or absence of the pharmacological inhibitors and incubated at 37° C. for 2 hours. The chemoattractants were then added in the lower chamber and the cells were allowed to migrate for 2 hours. Transmigrated cells were stained for CD3 (UCHT1), CD4 (RPA-T4), CD8 (RPA-T8), CD45RO (UCHL1), CCR7 (G043H7), CD69 (FN50), CD103 (Ber-act8), CD38 (HIT32) and HLA-DR (LN3) and analyzed/counted by flow cytometry (MACSquant, Miltenyi biotec, Bergisch Gladbach, Germany). All antibodies were purchased from BD-Biosciences (San Jose, Calif.), eBioscience (San Diego, Calif.), Beckman-Coulter (Miami, Fla.) or Biolegend (San Diego, Calif.). […] The percentage of input was calculated as the ratio between the number of cells migrating in a given condition and the number of cells used for the chemotaxis assay.

S1PR1 = S1PR1 (Homo sapiens, UniProt P21453); settings: read-out: Kd of S1P to S1PR1; cited from earlier work
S1PR1, sequence (P21453 whole entry, species assumed): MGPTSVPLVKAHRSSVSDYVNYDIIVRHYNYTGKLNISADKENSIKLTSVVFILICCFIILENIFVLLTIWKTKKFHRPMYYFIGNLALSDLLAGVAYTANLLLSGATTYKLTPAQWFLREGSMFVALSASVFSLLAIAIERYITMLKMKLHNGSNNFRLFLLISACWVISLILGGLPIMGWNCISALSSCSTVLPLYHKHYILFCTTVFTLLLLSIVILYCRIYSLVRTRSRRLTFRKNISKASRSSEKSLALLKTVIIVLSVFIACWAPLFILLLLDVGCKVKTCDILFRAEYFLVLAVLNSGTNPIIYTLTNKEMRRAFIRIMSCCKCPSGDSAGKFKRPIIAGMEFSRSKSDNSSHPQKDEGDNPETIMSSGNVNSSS

blood T cells = test: Transwell chemotaxis of blood T cells (PBMC) towards S1P; assay type: cell-based, human
From the text: T cell subsets were identified by flow cytometry.

## Cc1cc(CN)cc(C)c1NC(=O)c1ccc(-c2cc(Cl)ccc2Cl)o1 [CYM50358]
Tonsil naive T cells; S1P gradient
  Effect of pharmacological inhibitor on tonsil naive T cell migration to S1P: insensitive

## CCCCCCCCc1ccc(CCC(N)(CO)CO)cc1 [FTY720]
[1]
  Effect on peripheral TEM cells and NK cells in treated patients: does not affect
  Effect on peripheral naive and central memory T cells in treated patients: quick decrease
Tonsil TCM and TEM cells
  Impact on memory T cell migration in the presence of S1P: negative impact
Tonsil naive T cells; S1P gradient
  Effect of pharmacological inhibitor on tonsil naive T cell migration to S1P: strongly inhibited

## Cc1nn(C)c2nc(NNC(=O)Nc3cc(Cl)nc(Cl)c3)cc(C(C)C)c12 [JTE-013]
[2]; CD38+HLA-DR+ tonsil T cells
  Effect on S1P inhibition of spontaneous migration of act-CD4+ and act-CD8+ T cells: curbed
[3]; CD69 positive
  Effect on S1P inhibition of spontaneous migration of CD4+ TRM cells: abrogated
Tonsil TCM and TEM cells; tonsil TCM and TEM cells
  Effect on the inhibitory effect of S1P on TCM and TEM migration: abrogated
Tonsil T cell subsets; CXCL12 12 ng/ml, S1P 37 nM, JTE-013 1000 nM for 2 h
  Effect on S1P-mediated decrease of CXCL12-induced migration of TEM and TCM cells: abrogated
Tonsil naive T cells; S1P gradient
  Effect of pharmacological inhibitor on tonsil naive T cell migration to S1P: increased

## CCCCCCCCCCCCC/C=C/[C@@H](O)[C@@H](N)COP(=O)(O)O [S1P, Sphingosine-1 phosphate]
[2]
  Effect of S1P on spontaneous migration of act-CD4+ and act-CD8+ T cells: strongly inhibited
S1PR1
  Kd: 8 nM
[3]
  Effect of S1P on spontaneous migration of CD4+ TRM cells: inhibited
Tonsil TCM and TEM cells; S1P in lower chamber, especially memory CD4 T cells
  Effect of S1P on spontaneous migration of tonsil TCM and TEM cells: inhibited
Tonsil T cell subsets; S1P 37 nM in lower chamber
  Effect of S1P on CXCL12-induced migration of TEM cells: decreased
  Effect of S1P on CXCL12-induced migration of naive CD4 and CD8 T cells: slightly increased
Tonsil naive T cells; compared to control without S1P
  Effect of S1P gradients on tonsil naive T cell chemotaxis: strongly increased
Tonsil naive T cells; transwell, S1P gradient
  S1P concentration giving maximum migration of tonsil naive T cells: 30 to 60 nM
Blood T cells; PBMC
  Response of blood memory T cells to S1P: did not respond
Blood T cells; PBMC from healthy donors
  Response of blood naive T cells to S1P: did not respond

## FC(F)(F)c1cccc(-c2noc(-c3cc(-c4ccccc4)c(C(F)(F)F)s3)n2)c1 [SEW2871]
Tonsil TCM and TEM cells
  Impact on memory T cell migration in the presence of S1P: negative impact
Tonsil naive T cells; S1P gradient
  Effect of pharmacological inhibitor on tonsil naive T cell migration to S1P: strongly inhibited

— US20210038502A1, “S1PR2 ANTAGONISTS FOR TREATING DISEASES INVOLVING ABNORMAL IMMUNE RESPONSES” (INSERM (Institut National de la Santé et de la Recherche …, priority 2017, published 2021)
